Test results: patent US9156822B2, “Functionally selective ligands of dopamine D2 receptors” (The University of North Carolina at Chapel Hill, priority 2010, dated 2015)

Tests used:
in vivo = settings: mouse
D2 receptors [1] = target: T1, D2 receptors (Homo sapiens (Human), UniProt P14416); experiment: CHO-D2 radioligand binding assay ([3H]N-methylspiperone competition); settings: CHO-D2 membranes, [3H]N-methylspiperone; read-out: D2 Binding Ki ± SEM
Target sequence in this assay (P14416 whole entry): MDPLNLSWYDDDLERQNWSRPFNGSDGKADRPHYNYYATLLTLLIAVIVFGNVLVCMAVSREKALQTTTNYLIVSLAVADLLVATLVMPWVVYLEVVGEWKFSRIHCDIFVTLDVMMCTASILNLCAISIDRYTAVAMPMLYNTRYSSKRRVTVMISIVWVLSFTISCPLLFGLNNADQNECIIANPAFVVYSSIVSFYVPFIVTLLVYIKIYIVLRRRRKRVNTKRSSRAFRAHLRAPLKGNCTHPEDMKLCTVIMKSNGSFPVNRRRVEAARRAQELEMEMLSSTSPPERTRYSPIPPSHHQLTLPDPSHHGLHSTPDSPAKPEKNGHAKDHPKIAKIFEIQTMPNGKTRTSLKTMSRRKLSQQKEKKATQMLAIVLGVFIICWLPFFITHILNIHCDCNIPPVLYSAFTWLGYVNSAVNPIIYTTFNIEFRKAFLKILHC

hD2 receptors = hD2 receptors (Homo sapiens (Human), UniProt P14416); experiment: D2 mediated cAMP GloSensor assay; type: cell-based; settings: for EC50: HEK293T, isoproterenol-stimulated cAMP; for Emax: normalized to quinpirole, negative = inverse agonist, read-out: cAMP (GloSensor) Emax; on cAMP (GloSensor) activity in words (merged EC50/Emax cell): key: neutral: Neutral ligands are either antagonists or are inactive
D2 receptors [2] = target: T1, D2 receptors; experiment: D2 β-arrestin recruitment (Tango) assay; type: cell-based; settings: for EC50: HTLA cells, read-out: β-arrestin (Tango) EC50; for Emax: normalized to quinpirole (100%)
Method: The next day, cells were plated in white, clear-bottom, 384-well plates (Greiner, 10,000 cells/well, 50 μl/well) in DMEM containing 1% dialyzed fetal bovine serum. […] Data were normalized to vehicle (0%) and quinpirole (100%) controls and regressed using the sigmoidal dose-response function built into GraphPad Prism 4.0.
Target sequence in this assay (P14416 whole entry, looked up): as the sequence (P14416 whole entry) above

Sequence of hD2 receptors (P14416 whole entry): as above

Structure (SMILES)	Ki (D2 receptors [1]) [nM]	EC50 (hD2 receptors) [nM]	Emax (hD2 receptors) [%]	EC50 (D2 receptors [2]) [nM]	Emax (D2 receptors [2]) [%]	also measured
O=C1CCc2ccc(OCCCCN3CCN(c4cccc(Cl)c4Cl)CC3)cc2N1 [Aripiprazole, aripiprazole, reference compound]						AUC(0-inf) (in vivo; brain): 1180 ng·h/mL; AUC(0-t) (in vivo; brain): 1100 ng·h/mL; Cmax (in vivo; brain): 166 ng/mL; Tmax (in vivo; brain): 30 min; AUC(0-inf) (in vivo; plasma): 445 ng·h/mL; AUC(0-t) (in vivo; plasma): 431 ng·h/mL; Cmax (in vivo; plasma): 75.6 ng/mL; Tmax (in vivo; plasma): 15 min
COc1ccccc1N1CCCN(CCCCOc2ccc3c(c2)NC(=O)CC3)CC1 [Compound 9, 7-(4-(4-(2-methoxyphenyl)-1,4-diazepan-1-yl)butoxy)-3,4-dihydroquinolin-2(1H)-one]	4	163	-63	4.6	26	
COc1ccccc1N1CCCN(CCCCOc2ccc3ccc(=O)[nH]c3c2)CC1 [Compound 10, 7-(4-(4-(2-methoxyphenyl)-1,4-diazepan-1-yl)butoxy)quinolin-2(1H)-one]					16	
COc1ccccc1N1CCCN(CCCCOc2ccc3c(n2)NC(=O)CC3)CC1 [Compound 11, 7-(4-(4-(2-methoxyphenyl)-1,4-diazepan-1-yl)butoxy)-3,4-dihydro-1,8-naphthyridin-2(1H)-one]			-118		21	
CCOc1ccccc1N1CCCN(CCCCOc2ccc3c(c2)NC(=O)CC3)CC1 [Compound 12, 7-(4-(4-(2-ethoxyphenyl)-1,4-diazepan-1-yl)butoxy)-3,4-dihydroquinolin-2(1H)-one]	4.1 ± 0.2			4.3	41	cAMP (GloSensor) activity in words (merged EC50/Emax cell) (hD2 receptors): neutral
CCOc1ccccc1N1CCCN(CCCCOc2ccc3c(n2)NC(=O)CC3)CC1 [Compound 13, 7-(4-(4-(2-ethoxyphenyl)-1,4-diazepan-1-yl)butoxy)-3,4-dihydro-1,8-naphthyridin-2(1H)-one]	4.4 ± 0.3			4	43	cAMP (GloSensor) activity in words (merged EC50/Emax cell) (hD2 receptors): neutral
CCOc1ccccc1N1CCCN(CCCCOc2ccc3ccc(=O)[nH]c3c2)CC1 [Compound 14, 7-(4-(4-(2-ethoxyphenyl)-1,4-diazepan-1-yl)butoxy)quinolin-2(1H)-one]					58	
CC(C)Oc1ccccc1N1CCCN(CCCCOc2ccc3c(c2)NC(=O)CC3)CC1 [Compound 16, 7-(4-(4-(2-isopropoxyphenyl)-1,4-diazepan-1-yl)butoxy)-3,4-dihydroquinolin-2(1H)-one]	0.87 ± 0.04			4.2	53	cAMP (GloSensor) activity in words (merged EC50/Emax cell) (hD2 receptors): neutral
CC(C)Oc1ccccc1N1CCCN(CCCCOc2ccc3c(n2)NC(=O)CC3)CC1 [Compound 17, 7-(4-(4-(2-isopropoxyphenyl)-1,4-diazepan-1-yl)butoxy)-3,4-dihydro-1,8-naphthyridin-2(1H)-one]	1.29 ± 0.03	0.2	18	4.6	56	
CC(C)Oc1ccccc1N1CCCN(CCCCOc2ccc3ccc(=O)[nH]c3c2)CC1 [Compound 18, 7-(4-(4-(2-isopropoxyphenyl)-1,4-diazepan-1-yl)butoxy)quinolin-2(1H)-one]	0.93 ± 0.03	0.1	32	4.2	58	
O=C1NCCc2ccc(OCCCCN3CCN(c4cccc(Cl)c4Cl)CC3)cc21 [Compound 25, 7-(4-(4-(2,3-dichlorophenyl)piperazin-1-yl)butoxy)-3,4-dihydroisoquinolin-1(2H)-one]	18 ± 3	3700	-74	18	55	β-arrestin (Tango) % activ at 1 μM (D2 receptors [2]): 12%
O=C1CCc2ccc(OCC3CCC(CN4CCN(c5cccc(Cl)c5Cl)CC4)CC3)cc2N1 (stereo not drawn) [Compound 26, 7-((4-((4-(2,3-dichlorophenyl)piperazin-1-yl)methyl)cyclohexyl)methoxy)-3,4-dihydroquinolin-2(1H)-one]	145 ± 22	46000	-25	2100	51	β-arrestin (Tango) % activ at 1 μM (D2 receptors [2]): 6%
